Each structure is given as a SMILES string.

The test system of the first assay is HCT116. Nature of the assay: Cytotoxic MTS assay, HCT116. As to conditions: Homo sapiens, HCT-116, 72 h, colorectal tumor. The class given is cell-based. The source says: (§1) Cytotoxic activity of all synthesized compounds was investigated in vitro against eight human cancer cell lines and two non-tumor fibroblasts using the standard MTS test (Table 1). The cancer cell lines were derived from T-lymphoblastic leukemia CCRF-CEM, leukemia K562 and their multiresistant counterparts expressing P-glycoprotein, MRP1 and LRP proteins (CEM-DNR, K562-TAX), solid tumors including lung (A549) and colon (HCT116, HCT116p53-/-) carcinomas, osteosarcoma cell line (U2OS), and for comparison, tests were performed on two human non-cancer fibroblast cell lines (BJ, MRC-5).
(§2) Biological assays were performed in concordance with our previous publications [[29], [58]; [60]; [61]]. All cells (if not indicated otherwise) were purchased from the American Tissue Culture Collection (ATCC). The CCRF-CEM line is derived from T lymphoblastic leukemia, evincing high chemosenzitivity, K562 represent cells from an acute myeloid leukemia patient sample with bcr-abl translocation, U2OS line is derived from osteosarcoma, HCT116 is colorectal tumor cell line and its p53 gene knock-down counterpart (HCT116p53-/-, Horizon Discovery Ltd, UK) is a model of human cancers with p53 mutation frequently associated with poor prognosis, A549 line is lung adenocarcinoma. The daunorubicin resistant subline of CCRF-CEM cells (CEM-DNR bulk) and paclitaxel resistant subline K562-TAX were selected in our laboratory by the cultivation of maternal cell lines in increasing concentrations of daunorubicine or paclitaxel, respectively. The CEM-DNR bulk cells overexpress MRP-1 and P-glycoprotein protein, while K562-TAX cells overexpress P-glycoprotein only. Both proteins belong to the family of ABC transporters and are involved in the primary and/or acquired multidrug resistance phenomenon. MRC-5 and BJ cell lines were used as a non-tumor control and represent human fibroblasts. The cells were maintained in nunc/corning 80 cm^2 plastic tissue culture flasks and cultured in cell culture medium according to ATCC or Horizon recommendations (DMEM/RPMI 1640 with 5 g/L glucose, 2 mM glutamine, 100 U/mL penicillin, […] streptomycin, 10% fetal calf serum, and NaHCO3).
(§3) MTS assay was performed at Institute of Molecular and Translational Medicine by robotic platform (HighResBiosolutions). Cell suspensions were prepared and diluted according to the particular cell type and the expected target cell density (25000–35000 cells/mL based on cell growth characteristics). Cells were added by automatic pipetor (30 μL) into 384 well microtiter plates. All tested compounds were dissolved in 100% DMSO and four-fold dilutions of the intended test concentration were added in 0.15 μL aliquots at time zero to the microtiter plate wells by the echoacustic non-contact liquid handler Echo550 (Labcyte). The experiments were performed in technical duplicates and three biological replicates at least. The cells were incubated with the tested compounds for 72 h at 37°C, in a 5% CO2 atmosphere at 100% humidity. At the end of the incubation period, the cells were assayed by using the MTS test. Aliquots (5 μL) of the MTS stock solution were pipetted into each well and incubated for additional 1–4 h. After this incubation period, the optical density (OD) was measured at 490 nm with an Envision reader (Perkin Elmer). Tumor cell survival (TCS) was calculated by using the following equation: TCS = (ODdrug-exposed well/mean ODcontrol wells) × 100%. The IC50 value, the drug concentration that is lethal to 50% of the tumor cells, was calculated from the appropriate dose-response curves in Dotmatics software.
Take `C=C(Cn1cc(C2CCCC2)nn1)[C@@H]1CC[C@]2(C(=O)O)CC[C@]3(C)C(CCC4[C@@]5(C)CC[C@H](O)C(C)(C)C5CC[C@]43C)C12` (stereo partly drawn) [Compound 11g]: the half-maximal inhibitory concentration (IC50) (commonly the midpoint of a concentration-inhibition curve) came out at 33.5 µM.

In turn, `C=C(Cn1cc(-c2ccc(N(C)C)cc2)nn1)[C@@H]1CC[C@]2(C(=O)O)CC[C@]3(C)C(CCC4[C@@]5(C)CC[C@H](OC(C)=O)C(C)(C)C5CC[C@]43C)C12` (stereo partly drawn) [Compound 9e] displayed an IC50 of 32.9 µM.

For the compound `C=C(Cn1cc(-c2cccnc2)nn1)[C@@H]1CC[C@]2(C(=O)O)CC[C@]3(C)C(CCC4[C@@]5(C)CC[C@H](OC(C)=O)C(C)(C)C5CC[C@]43C)C12` (stereo partly drawn) [Compound 9d], the half-inhibitory concentration (IC50) was 19.2 µM.

Another assay deals with MRC-5. Nature of the assay: Cytotoxic MTS assay, MRC-5 fibroblasts. Format: cell-based. Conditions: Homo sapiens, MRC5, 72 h, non-tumor fibroblasts.
Text: as §1, §2, §3
(Tetrazolium assays rely on reduction of a dye to a coloured formazan, in cell work by metabolically active cells.)
As to `C=C(Cn1cc(C2CCCC2)nn1)[C@@H]1CC[C@]2(C(=O)O)CC[C@]3(C)C(CCC4[C@@]5(C)CC[C@H](O)C(C)(C)C5CC[C@]43C)C12` (stereo partly drawn) [Compound 11g], the half-maximal inhibitory concentration (IC50) is > 50 µM.

In turn, `C=C(Cn1cc(-c2ccc(N(C)C)cc2)nn1)[C@@H]1CC[C@]2(C(=O)O)CC[C@]3(C)C(CCC4[C@@]5(C)CC[C@H](OC(C)=O)C(C)(C)C5CC[C@]43C)C12` (stereo partly drawn) [Compound 9e] showed a concentration for half-maximal inhibition (IC50) of 30.3 µM.

`C=C(Cn1cc(-c2cccnc2)nn1)[C@@H]1CC[C@]2(C(=O)O)CC[C@]3(C)C(CCC4[C@@]5(C)CC[C@H](OC(C)=O)C(C)(C)C5CC[C@]43C)C12` (stereo partly drawn) [Compound 9d] registered a half-maximal inhibitory concentration (IC50) of 28.2 µM.

The next assay concerns HCT116p53-/-. Nature of the assay: Cytotoxic MTS assay, HCT116p53-/-. Format: cell-based. As to conditions: Homo sapiens, 72 h, p53 knock-down colorectal tumor.
Text: as §1, §2, §3
`C=C(Cn1cc(C2CCCC2)nn1)[C@@H]1CC[C@]2(C(=O)O)CC[C@]3(C)C(CCC4[C@@]5(C)CC[C@H](O)C(C)(C)C5CC[C@]43C)C12` (stereo partly drawn) [Compound 11g]: the IC50 was > 50 µM.

On to `C=C(Cn1cc(-c2ccc(N(C)C)cc2)nn1)[C@@H]1CC[C@]2(C(=O)O)CC[C@]3(C)C(CCC4[C@@]5(C)CC[C@H](OC(C)=O)C(C)(C)C5CC[C@]43C)C12` (stereo partly drawn) [Compound 9e], for which half-maximal inhibition (IC50) required 33.1 µM.

Take `C=C(Cn1cc(-c2cccnc2)nn1)[C@@H]1CC[C@]2(C(=O)O)CC[C@]3(C)C(CCC4[C@@]5(C)CC[C@H](OC(C)=O)C(C)(C)C5CC[C@]43C)C12` (stereo partly drawn) [Compound 9d]: inhibition was half-maximal at 18.7 µM (IC50).

In the next assay the test system is U2OS. Nature of the assay: Cytotoxic MTS assay, U2OS. Format: cell-based. Conditions: Homo sapiens, 72 h, osteosarcoma.
Text: as §1, §2, §3
As for `C=C(Cn1cc(C2CCCC2)nn1)[C@@H]1CC[C@]2(C(=O)O)CC[C@]3(C)C(CCC4[C@@]5(C)CC[C@H](O)C(C)(C)C5CC[C@]43C)C12` (stereo partly drawn) [Compound 11g], the IC50 was > 50 µM.

For `C=C(Cn1cc(-c2ccc(N(C)C)cc2)nn1)[C@@H]1CC[C@]2(C(=O)O)CC[C@]3(C)C(CCC4[C@@]5(C)CC[C@H](OC(C)=O)C(C)(C)C5CC[C@]43C)C12` (stereo partly drawn) [Compound 9e], the IC50 was 31 µM.

`C=C(Cn1cc(-c2cccnc2)nn1)[C@@H]1CC[C@]2(C(=O)O)CC[C@]3(C)C(CCC4[C@@]5(C)CC[C@H](OC(C)=O)C(C)(C)C5CC[C@]43C)C12` (stereo partly drawn) [Compound 9d] came in with an IC50 of 17.3 µM.

The subject of another assay is K562. Nature of the assay: Cytotoxic MTS assay, K562. The class given is cell-based. As to conditions: Homo sapiens, 72 h, leukemia.
Text: as §1, §2, §3
Consider `C=C(Cn1cc(C2CCCC2)nn1)[C@@H]1CC[C@]2(C(=O)O)CC[C@]3(C)C(CCC4[C@@]5(C)CC[C@H](O)C(C)(C)C5CC[C@]43C)C12` (stereo partly drawn) [Compound 11g], for which the IC50 is > 50 µM.

Compound `C=C(Cn1cc(-c2ccc(N(C)C)cc2)nn1)[C@@H]1CC[C@]2(C(=O)O)CC[C@]3(C)C(CCC4[C@@]5(C)CC[C@H](OC(C)=O)C(C)(C)C5CC[C@]43C)C12` (stereo partly drawn) [Compound 9e] registered an IC50 of 35.4 µM.

`C=C(Cn1cc(-c2cccnc2)nn1)[C@@H]1CC[C@]2(C(=O)O)CC[C@]3(C)C(CCC4[C@@]5(C)CC[C@H](OC(C)=O)C(C)(C)C5CC[C@]43C)C12` (stereo partly drawn) [Compound 9d] yielded a half-inhibitory concentration (IC50) of 13.3 µM.

Another assay concerns CCRF-CEM. Nature of the assay: Cytotoxic MTS assay, CCRF-CEM. The class given is cell-based. Conditions: Homo sapiens, 72 h, T-lymphoblastic leukemia.
Text: as §1, §2, §3
On to `C=C(Cn1cc(C2CCCC2)nn1)[C@@H]1CC[C@]2(C(=O)O)CC[C@]3(C)C(CCC4[C@@]5(C)CC[C@H](O)C(C)(C)C5CC[C@]43C)C12` (stereo partly drawn) [Compound 11g], for which the half-inhibitory concentration (IC50) stood at 16.7 µM.

With `C=C(Cn1cc(-c2ccc(N(C)C)cc2)nn1)[C@@H]1CC[C@]2(C(=O)O)CC[C@]3(C)C(CCC4[C@@]5(C)CC[C@H](OC(C)=O)C(C)(C)C5CC[C@]43C)C12` (stereo partly drawn) [Compound 9e], inhibition was half-maximal at 19.4 µM (IC50).

`C=C(Cn1cc(-c2cccnc2)nn1)[C@@H]1CC[C@]2(C(=O)O)CC[C@]3(C)C(CCC4[C@@]5(C)CC[C@H](OC(C)=O)C(C)(C)C5CC[C@]43C)C12` (stereo partly drawn) [Compound 9d] returned an IC50 of 14.9 µM.

The test system of another assay is K562-TAX. Nature of the assay: Cytotoxic MTS assay, K562-TAX. The class given is cell-based. As to conditions: Homo sapiens, 72 h, paclitaxel resistant subline of K562.
Text: as §1, §2, §3
The compound `C=C(Cn1cc(C2CCCC2)nn1)[C@@H]1CC[C@]2(C(=O)O)CC[C@]3(C)C(CCC4[C@@]5(C)CC[C@H](O)C(C)(C)C5CC[C@]43C)C12` (stereo partly drawn) [Compound 11g] registered an IC50 of 23.3 µM.

Consider `C=C(Cn1cc(-c2ccc(N(C)C)cc2)nn1)[C@@H]1CC[C@]2(C(=O)O)CC[C@]3(C)C(CCC4[C@@]5(C)CC[C@H](OC(C)=O)C(C)(C)C5CC[C@]43C)C12` (stereo partly drawn) [Compound 9e], for which the IC50 is 30 µM.

For the compound `C=C(Cn1cc(-c2cccnc2)nn1)[C@@H]1CC[C@]2(C(=O)O)CC[C@]3(C)C(CCC4[C@@]5(C)CC[C@H](OC(C)=O)C(C)(C)C5CC[C@]43C)C12` (stereo partly drawn) [Compound 9d], 11.2 µM corresponded to half-maximal inhibition (IC50).

Another assay deals with BJ. Nature of the assay: Cytotoxic MTS assay, BJ fibroblasts. Format: cell-based. As to conditions: Homo sapiens, 72 h, non-tumor fibroblasts.
Text: as §1, §2, §3
In the case of `C=C(Cn1cc(C2CCCC2)nn1)[C@@H]1CC[C@]2(C(=O)O)CC[C@]3(C)C(CCC4[C@@]5(C)CC[C@H](O)C(C)(C)C5CC[C@]43C)C12` (stereo partly drawn) [Compound 11g], the concentration for half-maximal inhibition (IC50) is > 50 µM.

For `C=C(Cn1cc(-c2ccc(N(C)C)cc2)nn1)[C@@H]1CC[C@]2(C(=O)O)CC[C@]3(C)C(CCC4[C@@]5(C)CC[C@H](OC(C)=O)C(C)(C)C5CC[C@]43C)C12` (stereo partly drawn) [Compound 9e], the midpoint of inhibition, the IC50, lay at 35.1 µM.

Take `C=C(Cn1cc(-c2cccnc2)nn1)[C@@H]1CC[C@]2(C(=O)O)CC[C@]3(C)C(CCC4[C@@]5(C)CC[C@H](OC(C)=O)C(C)(C)C5CC[C@]43C)C12` (stereo partly drawn) [Compound 9d]: the concentration for half-maximal inhibition (IC50) was found to be 29.9 µM.

The next assay deals with CEM-DNR. Nature of the assay: Cytotoxic MTS assay, CEM-DNR. Format: cell-based. Conditions: Homo sapiens, 72 h, daunorubicin resistant subline of CCRF-CEM.
Text: as §1, §2, §3
The compound `C=C(Cn1cc(C2CCCC2)nn1)[C@@H]1CC[C@]2(C(=O)O)CC[C@]3(C)C(CCC4[C@@]5(C)CC[C@H](O)C(C)(C)C5CC[C@]43C)C12` (stereo partly drawn) [Compound 11g] returned a concentration for half-maximal inhibition (IC50) of 38 µM.

`C=C(Cn1cc(-c2ccc(N(C)C)cc2)nn1)[C@@H]1CC[C@]2(C(=O)O)CC[C@]3(C)C(CCC4[C@@]5(C)CC[C@H](OC(C)=O)C(C)(C)C5CC[C@]43C)C12` (stereo partly drawn) [Compound 9e] came in with an IC50 of 29.6 µM.

Compound `C=C(Cn1cc(-c2cccnc2)nn1)[C@@H]1CC[C@]2(C(=O)O)CC[C@]3(C)C(CCC4[C@@]5(C)CC[C@H](OC(C)=O)C(C)(C)C5CC[C@]43C)C12` (stereo partly drawn) [Compound 9d] yielded an IC50 of 12 µM.

A further assay has as its system A549. Nature of the assay: Cytotoxic MTS assay, A549. As to conditions: Homo sapiens, 72 h, lung adenocarcinoma. The class given is cell-based.
Text: as §1, §2, §3
On to `C=C(Cn1cc(C2CCCC2)nn1)[C@@H]1CC[C@]2(C(=O)O)CC[C@]3(C)C(CCC4[C@@]5(C)CC[C@H](O)C(C)(C)C5CC[C@]43C)C12` (stereo partly drawn) [Compound 11g], for which the IC50 is > 50 µM.

Compound `C=C(Cn1cc(-c2ccc(N(C)C)cc2)nn1)[C@@H]1CC[C@]2(C(=O)O)CC[C@]3(C)C(CCC4[C@@]5(C)CC[C@H](OC(C)=O)C(C)(C)C5CC[C@]43C)C12` (stereo partly drawn) [Compound 9e] gave an IC50 of 26.6 µM.

With `C=C(Cn1cc(-c2cccnc2)nn1)[C@@H]1CC[C@]2(C(=O)O)CC[C@]3(C)C(CCC4[C@@]5(C)CC[C@H](OC(C)=O)C(C)(C)C5CC[C@]43C)C12` (stereo partly drawn) [Compound 9d], the 50% inhibitory concentration (IC50) is 11.3 µM.

Source of the values: paper PMC5291411, “Cytotoxic conjugates of betulinic acid and substituted triazoles prepared by Huisgen Cycloaddition from 30-azidoderivatives” (PLoS ONE, 2017).
